# Source: US7998903B2, “Glycerol-modified silicone spreading agent and a composition comprising the same” (Shin-Etsu Chemical Co., Ltd., priority 2004, dated 2011)
# Legend:
# [1] = Surface tension of silicone/oil agent mixtures, automatic tensiometer, 25 degrees C.; type: physicochemical; conditions: for Surface Tension, glycerol-modified silicone/oil agent = 10/90, Liquid paraffin / Surface Tension, glycerol-modified silicone/oil agent = 10/90, Rapeseed oil / Surface Tension, glycerol-modified silicone/oil agent = 10/90, Soybean oil: 25 C.; for Surface Tension, glycerol-modified silicone/oil agent = 10/90, Liquid paraffin: silicone/liquid paraffin = 10/90, neat liquid paraffin 27.9; for Surface Tension, glycerol-modified silicone/oil agent = 10/90, Rapeseed oil: silicone/rapeseed oil = 10/90, neat rapeseed oil 31; for Surface Tension, glycerol-modified silicone/oil agent = 10/90, Soybean oil: silicone/soybean oil = 10/90, neat soybean oil 31.8; for Surface tension, amount added 1 wt % / Surface tension, amount added 5 wt % / Surface tension, amount added 10 wt % / Surface tension, amount added 15 wt %: Table 5, oil agent not named; for Surface tension, amount added 1 wt %: 1 wt % silicone; for Surface tension, amount added 5 wt %: 5 wt % silicone; for Surface tension, amount added 10 wt %: 10 wt % silicone; for Surface tension, amount added 15 wt %: 15 wt % silicone
# Description: (§1) The present invention will be explained in detail with reference to the following Examples, but not limited to them. In the Examples, surface tension was measured with a full automatic tensiometer, model PD-W, ex Kyowa Interface Science Co. Ltd., at 25 degrees C. according to the water drop method in which a contact angle with the air is measured. A surface tension of dimethylpolysiloxane having a viscosity of 30 mm^2/s at 25 degrees C. measured according to this method was 18.2 mN/m. In the tables shown below, “D” and “I” each represents a degree of solubility: “D” means “dispersed” and “I” means “insoluble.” A silicone with no mark means that it dissolved to form a transparent solution.
# (§2) Some properties and solubility in oil agents were determined with each of the glycerol-modified silicone prepared in Examples 1 to 5. Surface tension of the mixtures of the silicone and the oil agent were measured, too.
# Silicones modified with compounds other than glycerol were prepared. Mixtures with the oil agents were prepared and surface tension thereof was measured as in Examples.
# Compositions were prepared containing an oil agent and the glycerol-modified silicone in a weight ratio of 90/10 and surface tension thereof was measured.
# Silicones without having a glycerol residue and silicones having a structure other than, A-B-A, were prepared and subjected to the measurements as in Examples. Mixtures with the oil agents were prepared each of which surface tension was measured as in Examples.
# [2] = tested on: leaf of Citrus Natsudaidai; assay: Spreading of one drop of liquid paraffin containing silicone on a leaf (FIGS. 1 & 2); conditions: 15 μl drop of liquid paraffin containing 10 wt % silicone; 5 minutes after placing
# Description: FIGS. 1 & 2 are photographs each taken 5 minutes after one drop, i.e., 15 μl, of liquid paraffin containing 10 wt % of the silicone of Example 2 and Comparative Example 6, respectively, was placed on a leaf of Citrus Natsudaidai. […] Comparing the figures, the liquid paraffin containing the glycerol-modified silicone in Example 2 has better spreading property than the silicone modified with n-octene.
# [3] = Degree of solubility (miscibility) of the silicone in oil agents; type: physicochemical; design: key: “D” means “dispersed”; “I” means “insoluble.”; A silicone with no mark means that it dissolved to form a transparent solution
# Description: as §1, §2
"Surface Tension, glycerol-modified silicone/oil agent = 10/90, Liquid paraffin [1] [mN/m]","Surface Tension, glycerol-modified silicone/oil agent = 10/90, Rapeseed oil [1] [mN/m]","Surface Tension, glycerol-modified silicone/oil agent = 10/90, Soybean oil [1] [mN/m]","Surface tension, amount added 1 wt % [1] [mN/m]","Surface tension, amount added 5 wt % [1] [mN/m]","Surface tension, amount added 10 wt % [1] [mN/m]","Surface tension, amount added 15 wt % [1] [mN/m]",SMILES,further results
26.3,–,–,–,–,–,–,CCCCCCCCCCCC[Si](C)(O[Si](C)(C)C)O[Si](C)(C)C [compound 7],–
25.5,24.5,24.9,27.4,25.3,25.5,24.4,CCCCCCCC[Si](C)(O[Si](C)(C)C)O[Si](C)(C)C [Comparative Example 6],spreading of a drop on a leaf [2]: remained as a small circle
23,26.9,27.5,–,–,–,–,CCC(CO)(CO)COCCC[Si](C)(C)O[Si](C)(C)C [compound 14],–
22.1,25.3,26,–,–,–,–,CCC(CO)(CO)COCCC[Si](C)(O[Si](C)(C)C)O[Si](C)(C)C [compound 15],–
23.7,24.9,24.3,27,24.4,23.7,23.7,CC(CCO)C[Si](C)(O[Si](C)(C)C)O[Si](C)(C)C (stereo not shown) [compound 11],–
21.3,22.6,21.9,–,–,–,–,C[Si](C)(C)O[Si](C)(C)CCCOCC(O)CO (stereo not shown) [Example 1],–
–,–,–,–,–,–,–,C[Si](C)(CCCOCC(O)CO)O[Si](C)(C)CCCOCC(O)CO (stereo not shown) [Comparative Example 1],"Miscibility, glycerol-modified silicone/oil agent = 10/90, Liquid paraffin ([3]; silicone/liquid paraffin = 10/90): (I); Miscibility, glycerol-modified silicone/oil agent = 10/90, Rapeseed oil ([3]; silicone/rapeseed oil = 10/90): (I); Miscibility, glycerol-modified silicone/oil agent = 10/90, Soybean oil ([3]; silicone/soybean oil = 10/90): (I)"
25.4,–,–,26.6,25,25.4,22.7,C[Si](C)(C)O[Si](C)(CCCCCO)O[Si](C)(C)C [compound 10],–
25,–,–,–,–,–,–,CCCCCCCC[Si](C)(C)O[Si](C)(C)O[Si](C)(C)C [compound 8],–
